# Assay: recombinant barcode read abundance after kanamycin selection (control-corrected) (log10(CPM+1)); higher = more efficient recombination; sequences stand for … in AGTGCAGAGAAAATCGGCCAGTTTTCTCTGCCTGCAGTCCGCATGCCGT…AGATTTATGCAGCGGACTGCCTTTCTCCCAAAGTGATAAACCGGACAGTATCATGGACCGGTTTTCCCGGTAATCCGTATTTGCAAGGTTGGTTTCACT; site = the 11-nt target
# Method in brief: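 Recombination efficiency in this pooled E. coli screen uses counts per million of barcodes at recombinant junctions, averaged and corrected against the control. The reported form is log10(CPM+1). Two replicates were plated on chloramphenicol/ampicillin LB agar as control and two on chloramphenicol/ampicillin/kanamycin with 0.1 mM IPTG.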
# 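Further: IS621 recombinase and bridge RNA in Escherichia coli cells.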
row,Sequence,recombinant barcode read abundance (log10)
1,GCTAGGACTTGGGTTCTAACCTGTTGCTG (site CGGTCTGCTAT),0.163
2,GCTAGGACTTGGGTTCTAACCTGTTGCTG (site GCTAGGACTCA),2.12
3,GCTCAACCTTGGGTTCTAACCTGTTGCCT (site GATCAACCTAG),0.796
4,GCTCAACCTTGGGTTCTAACCTGTTGCCT (site GCTCAACCTAG),1.6
5,GCTCAACCTTGGGTTCTAACCTGTTGCCT (site GGTCAACCTAG),0.176
6,GCTCAACCTTGGGTTCTAACCTGTTGCCT (site GTTCAACCTAG),0.126
7,GCTCACTCTTGGGTTCTAACCTGTTGCTT (site GCTCACTCTAA),1.63
8,GCTCACTCTTGGGTTCTAACCTGTTGCTT (site GTTCCCTCTAA),0.0084
9,GCTCAGCCTTGGGTTCTAACCTGTTGCCT (site GCTCAGACTAG),0.0954
10,GCTCAGCCTTGGGTTCTAACCTGTTGCCT (site GCTCAGCCTAG),1.14
11,GCTCAGCCTTGGGTTCTAACCTGTTGCCT (site GCTCAGGCTAG),0.16
12,GCTCAGCCTTGGGTTCTAACCTGTTGCCT (site GCTCAGTCTAG),0.072
13,GCTCCGTCTTGGGTTCTAACCTGTTGCTT (site ACTCCGTCTTA),0.047
14,GCTCCGTCTTGGGTTCTAACCTGTTGCTT (site GCTCCGTCTAA),0.644
15,GCTCGACCTTGGGTTCTAACCTGTTGCTG (site CGCTCCTCTAT),0.18
16,GCTCGACCTTGGGTTCTAACCTGTTGCTG (site GCTCGACCTCA),1.68
17,GCTCGTACTTGGGTTCTAACCTGTTGCAT (site GCTCGTACTAT),1.47
18,GCTCGTACTTGGGTTCTAACCTGTTGCAT (site TCGCGTACTAT),0.0401
19,GCTGAGACTTGGGTTCTAACCTGTTGCCG (site GATGAGACTCG),0.218
20,GCTGAGACTTGGGTTCTAACCTGTTGCCG (site GCTGAGACTCG),2.53
21,GCTGGACCTTGGGTTCTAACCTGTTGCAT (site GCTCGTCCTAT),0.0463
22,GCTGGACCTTGGGTTCTAACCTGTTGCAT (site GCTGGACCTAT),2.18

row,Sequence,recombinant barcode read abundance (log10)
1,GCTGGCCCTTGGGTTCTAACCTGTTGCCT (site GATGGCCCTAG),0.0865
2,GCTGGCCCTTGGGTTCTAACCTGTTGCCT (site GCTGGCCCTAG),1.18
3,GCTGGCCCTTGGGTTCTAACCTGTTGCCT (site GGTGGCCCTAG),0.0479
4,GCTGGCCCTTGGGTTCTAACCTGTTGCCT (site GTTGGCCCTAG),0.481
5,GCTGGTCCTTGGGTTCTAACCTGTTGCCT (site GCAGGTCCTAG),0.311
6,GCTGGTCCTTGGGTTCTAACCTGTTGCCT (site GCCGGTCCTAG),0.431
7,GCTGGTCCTTGGGTTCTAACCTGTTGCCT (site GCGGGTCCTAG),0.205
8,GCTGGTCCTTGGGTTCTAACCTGTTGCCT (site GCTGGTCCTAG),1.75
9,GCTTAAACTTGGGTTCTAACCTGTTGCCT (site ATGGCCTCTTA),0.0724
10,GCTTAAACTTGGGTTCTAACCTGTTGCCT (site GCTTAAACTAG),1.04
11,GCTTCCACTTGGGTTCTAACCTGTTGCCT (site ACTTCCACTAG),0.074
12,GCTTCCACTTGGGTTCTAACCTGTTGCCT (site CCTTCCACTAG),0.24
13,GCTTCCACTTGGGTTCTAACCTGTTGCCT (site GCTTCCACTAG),0.381
14,GCTTCCACTTGGGTTCTAACCTGTTGCCT (site TCTTCCACTAG),0.196
15,GCTTCGTCTTGGGTTCTAACCTGTTGCCT (site GCATCGTCTAG),0.427
16,GCTTCGTCTTGGGTTCTAACCTGTTGCCT (site GCCTCGTCTAG),0.129
17,GCTTCGTCTTGGGTTCTAACCTGTTGCCT (site GCGTCGTCTAG),0.0292
18,GCTTCGTCTTGGGTTCTAACCTGTTGCCT (site GCTTCGTCTAG),0.393
19,GGAAAAGCTTGGGTTCTAACCTGTTGCTT (site GGAAAAGCTAA),0.268
20,GGAAAAGCTTGGGTTCTAACCTGTTGCTT (site TCTTCGACTCT),0.153
21,GGAACGACTTGGGTTCTAACCTGTTGCGT (site CTCCGAGCTGT),0.0623

# From the supplement of paper PMC11208160
